Among the data in patent US7473688B2, “Indolobenzazepine HCV NS5B inhibitors” (Bristol-Myers Squibb Company, priority 2005, dated 2009) are EC50 and IC50 values, retold here.

SMILES strings stand for the structures. Where two headings read alike, the source gives them in different places. A value given as a limit tells only on which side of the number the result lay.

The test system of one experiment is HCV replicon. Nature of the experiment: HCV replicon FRET assay. To be noted: Hepatitis C virus, FRET assay, read-out: EC50*. Format: cell-based. The gist of the method: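 HCV replicon cells, with or without Renilla luciferase reporter, incubated with titrated compounds at 37 °C; Alamar blue read for cytotoxicity. NS3 protease activity read from lysates with 20 μM EDANS/DABCYL FRET peptide (340/490 nm, kinetic), or by Dual-Glo luciferase. Background from highest protease-inhibitor wells; EC50 = 50% signal reduction.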

The target of a further experiment is T1, HCV NS5B (Hepatitis C virus genotype 1b, UniProt Q9WMX2).
T1 construct: The protein was expressed with an 18 amino acid C-terminal truncation to enhance the solubility; made in house; host or cells: E. coli BL21 (DE3), pET21a
Nature of the experiment: HCV NS5B RdRp enzyme assay (preincubation protocol). Format: biochemical. Summed up:
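C-terminally truncated (Δ18) genotype 1b NS5B from E. coli, 14 nM, added to compound, then polyA template (0.2 nM), 3H-UTP (0.29 μM) and oligo-dT12 primer precaptured on streptavidin SPA beads. 4 h at 30 °C, pH 7.5, 2% DMSO; SPA readout; IC50 from seven concentrations by logistic fit.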

T1 sequence (Q9WMX2 2420-2992): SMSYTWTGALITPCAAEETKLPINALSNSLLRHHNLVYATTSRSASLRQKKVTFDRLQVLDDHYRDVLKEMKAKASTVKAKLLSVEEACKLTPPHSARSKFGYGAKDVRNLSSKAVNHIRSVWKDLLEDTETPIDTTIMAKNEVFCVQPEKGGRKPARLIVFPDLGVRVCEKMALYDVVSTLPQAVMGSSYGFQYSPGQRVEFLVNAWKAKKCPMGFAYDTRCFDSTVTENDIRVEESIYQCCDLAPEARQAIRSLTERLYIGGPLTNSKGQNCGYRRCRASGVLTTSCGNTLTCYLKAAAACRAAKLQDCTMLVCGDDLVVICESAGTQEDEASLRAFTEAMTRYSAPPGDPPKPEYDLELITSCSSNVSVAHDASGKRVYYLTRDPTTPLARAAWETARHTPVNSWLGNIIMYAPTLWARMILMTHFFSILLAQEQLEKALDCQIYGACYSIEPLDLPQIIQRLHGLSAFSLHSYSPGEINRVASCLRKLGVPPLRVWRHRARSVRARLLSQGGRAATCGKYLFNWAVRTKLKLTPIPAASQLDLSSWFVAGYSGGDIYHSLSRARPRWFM

For orientation: EC50 means the concentration needed to bring the measured effect to its halfway point. As usually defined, the IC50 is the concentration at which inhibition is half-maximal. For the compound `CCN(C)C(=O)CN(C)C(=O)C1=Cc2cc(OC)ccc2-c2c(C3CCCCC3)c3ccc(C(=O)NS(=O)(=O)N(C)C)cc3n2C1`, the EC50 in the experiment with HCV replicon (Table 1a) lay within 0.03 to 1 µM. In addition, the IC50 on HCV NS5B (Table 1a, read-out: IC50*) lay within 0.01 to 1 µM.

In the case of `COc1ccc2c(c1)CC(NC(=O)NCCN1CCOCC1)Cn1c-2c(C2CCCCC2)c2ccc(C(=O)NS(=O)(=O)N(C)C)cc21` (stereo not shown), in the experiment on HCV replicon (Table 1a), the EC50 was in the range of 0.03 to 1 µM. Also, the IC50 on HCV NS5B (Table 1a, read-out: IC50*) fell in the range of 0.01 to 1 µM.

`COc1ccc2c(c1)C=C(C(=O)N(C)C1CCOCC1)Cn1c-2c(C2CCCCC2)c2ccc(C(=O)NS(=O)(=O)N(C)C)cc21`: the EC50 in the experiment on HCV replicon (Table 1a) was greater than 0.12 µM. In addition, the 50% inhibitory concentration (IC50) on HCV NS5B (Table 1a, read-out: IC50*) was 0.01 to 1 µM.

For the compound `COc1ccc2c(c1)C=C(C(=O)N(CC(=O)O)CC(=O)O)Cn1c-2c(C2CCCCC2)c2ccc(C(=O)NS(=O)(=O)N(C)C)cc21`, the EC50 in the experiment with HCV replicon (Table 1b) is greater than 10 µM. For the same compound, at HCV NS5B (Table 1b, read-out: IC50*), the IC50 is 0.02 to 1 µM.

With `O=C(NS(=O)(=O)N1CCOCC1)c1ccc2c(C3CCCCC3)c3n(c2c1)CC(C(=O)N1CCOCC1)Cc1ccccc1-3` (stereo not shown), in the experiment on HCV replicon (Table 1), the EC50 lay in the range of 0.07 to 1 µM. Also, at HCV NS5B (Table 1, read-out: IC50*), the IC50 lay within 0.01 to 1 µM.

With `CN(C)S(=O)(=O)NC(=O)c1ccc2c(C3CCCCC3)c3n(c2c1)CC(C(=O)N1CC[C@H](F)C1)=Cc1ccccc1-3`, in the experiment with HCV replicon (Table 1), the EC50 lay within 0.07 to 1 µM. For the same compound, the IC50 at HCV NS5B (Table 1, read-out: IC50*) was in the range of 0.01 to 1 µM.

With `COc1ccc2c(c1)CC(NC(=O)N1CCN(C(C)=O)CC1)Cn1c-2c(C2CCCCC2)c2ccc(C(=O)NS(=O)(=O)N(C)C)cc21` (stereo not shown), the concentration giving a half-maximal response (EC50) in the experiment on HCV replicon (Table 1a) lay within 0.03 to 1 µM. In addition, the IC50 on HCV NS5B (Table 1a, read-out: IC50*) lay within 0.01 to 1 µM.

For `COc1ccc2c(c1)C=C(C(=O)N1CCN(CC(F)(F)F)CC1)Cn1c-2c(C2CCCCC2)c2ccc(C(=O)NS(=O)(=O)N(C)C)cc21` [drawing 393], the EC50 in the experiment on HCV replicon (Table 1b) is 0.03 to 1 µM. The IC50 on HCV NS5B (Table 1b, read-out: IC50*) is 0.02 to 1 µM.

On to `COc1ccc2c(c1)C=C(C(=O)N[C@@](C)(CO)C(=O)N(C)C)Cn1c-2c(C2CCCCC2)c2ccc(C(=O)NS(=O)(=O)N(C)C)cc21`, for which the EC50 in the experiment on HCV replicon (Table 1b) fell in the range of 0.03 to 1 µM. The IC50 at HCV NS5B (Table 1b, read-out: IC50*) is 0.02 to 1 µM.

As to `CN(C)S(=O)(=O)NC(=O)c1ccc2c(C3CCCCC3)c3n(c2c1)CC(C(=O)N1CCN(c2ccccc2)CC1)=Cc1ccccc1-3`, the EC50 in the experiment with HCV replicon (Table 1) was in the range of 0.07 to 1 µM. Moreover, the 50% inhibitory concentration (IC50) at HCV NS5B (Table 1, read-out: IC50*) lay within 0.01 to 1 µM.

With `CC(=O)N1CCN(C(=O)C2Cc3ccccc3-c3c(C4CCCCC4)c4ccc(C(=O)NS(=O)(=O)N(C)C)cc4n3C2)CC1` (stereo not shown), in the experiment on HCV replicon (Table 1), the EC50 fell in the range of 0.07 to 1 µM. The IC50 on HCV NS5B (Table 1, read-out: IC50*) fell in the range of 0.01 to 1 µM.

As to `CC(=O)NN(C)C(=O)C1=Cc2ccccc2-c2c(C3CCCCC3)c3ccc(C(=O)NS(=O)(=O)N(C)C)cc3n2C1`, the EC50 in the experiment on HCV replicon (Table 1) is 0.07 to 1 µM. For the same compound, on HCV NS5B (Table 1, read-out: IC50*), the IC50 is 0.01 to 1 µM.

For the compound `COc1ccc2c(c1)C[C@@H](NC(=O)N(C)CC(=O)N(C)C)Cn1c-2c(C2CCCCC2)c2ccc(C(=O)NS(=O)(=O)N(C)C)cc21`, the EC50 with HCV replicon (Table 1b) was in the range of 0.03 to 1 µM. The IC50 on HCV NS5B (Table 1b, read-out: IC50*) was in the range of 0.02 to 1 µM.

With `CC(=O)NN(C)C(=O)C1=Cc2ccccc2-c2c(C3CCCCC3)c3ccc(C(=O)O)cc3n2C1` [drawing 154], the EC50 with HCV replicon (Table 1) was 1 to 10 µM. Besides, the IC50 on HCV NS5B (Table 1, read-out: IC50*) lay within 0.01 to 1 µM.

For the compound `O=C(O)c1ccc2c(C3CCCCC3)c3n(c2c1)CC(C(=O)N1CCC(N2CCC(F)CC2)CC1)=Cc1ccccc1-3`, the EC50 in the experiment on HCV replicon (Table 1) was in the range of 0.07 to 1 µM. Besides, the IC50 at HCV NS5B (Table 1, read-out: IC50*) lay within 0.01 to 1 µM.

In the case of `COC(=O)c1ccc2c(C3CCCCC3)c3n(c2c1)CC(C(=O)N1CC2(CCN(C)CC2)C1)=Cc1ccccc1-3`, the EC50 with HCV replicon (Table 1) lay in the range of 1 to 10 µM. In addition, on HCV NS5B (Table 1, read-out: IC50*), the IC50 is greater than 1 µM.

With `CN(C)S(=O)(=O)NC(=O)c1ccc2c(C3CCCCC3)c3n(c2c1)CC(C(=O)N1CCC(CNC(=O)c2ccccc2)C1)=Cc1ccccc1-3` (stereo not shown), the EC50 with HCV replicon (Table 1) was 0.07 to 1 µM. The IC50 at HCV NS5B (Table 1, read-out: IC50*) lay in the range of 0.01 to 1 µM.

As for `CN(C)S(=O)(=O)NC(=O)c1ccc2c(C3CCCCC3)c3n(c2c1)CC(C(=O)N1CCN(c2ncncn2)CC1)=Cc1ccccc1-3`, the concentration for a half-maximal effect (EC50) in the experiment on HCV replicon (Table 1) lay within 0.07 to 1 µM. The IC50 on HCV NS5B (Table 1, read-out: IC50*) fell in the range of 0.01 to 1 µM.

On to `COc1ccc2c(c1)C=C(C(=O)N(C)CC(=O)N(C)C)Cn1c-2c(C2CCCCC2)c2ccc(C(=O)NS(=O)(=O)N(C)C)cc21` [drawing 238], for which the EC50 in the experiment on HCV replicon (Table 1a) lay in the range of 0.03 to 1 µM. Besides, at HCV NS5B (Table 1a, read-out: IC50*), the IC50 fell in the range of 0.01 to 1 µM.

For the compound `C[C@@H]1CN(C(=O)c2ccccc2)CCN1C(=O)C1=Cc2ccccc2-c2c(C3CCCCC3)c3ccc(C(=O)NS(=O)(=O)N(C)C)cc3n2C1`, the EC50 in the experiment on HCV replicon (Table 1) was 0.07 to 1 µM. Moreover, the IC50 at HCV NS5B (Table 1, read-out: IC50*) was in the range of 0.01 to 1 µM.

Consider `COc1ccc2c(c1)C=C(C(=O)N(C)C[C@@H]1CCCO1)Cn1c-2c(C2CCCCC2)c2ccc(C(=O)O)cc21`, for which the EC50 in the experiment with HCV replicon (Table 1a) was in the range of 1 to 10 µM. Besides, the IC50 at HCV NS5B (Table 1a, read-out: IC50*) lay within 0.01 to 1 µM.

As for `Cc1ccc(S(=O)(=O)N2CCN(C(=O)C3=Cc4ccccc4-c4c(C5CCCCC5)c5ccc(C(=O)NS(=O)(=O)N(C)C)cc5n4C3)CC2)cc1`, the EC50 in the experiment on HCV replicon (Table 1) was 0.07 to 1 µM. In addition, at HCV NS5B (Table 1, read-out: IC50*), the half-maximal inhibitory concentration (IC50) lay in the range of 0.01 to 1 µM.

`CCOC(=O)CN1CCN(C(=O)C2=Cc3ccccc3-c3c(C4CCCCC4)c4ccc(C(=O)NS(=O)(=O)N(C)C)cc4n3C2)CC1`: in the experiment with HCV replicon (Table 1), the EC50 lay within 0.07 to 1 µM. Moreover, the IC50 on HCV NS5B (Table 1, read-out: IC50*) is 0.01 to 1 µM.
